Reference: patent US20140328940A1, “MODULATION OF AXON DEGENERATION” (Genentech, Inc., priority 2009, published 2014)
Entries after “also recorded” stand apart in the source; their conditions may differ. *1 amine or outer side, *2 acyl side, *3 side chain or, on linkers, in order; H or OH if unused. Where a SMILES comes first, the peptide text is derived from it. Bridges are numbered along the chain shown (N, C = ends). Roman numbers before positions name the chains, in order. [ ]: non-standard residue; d: D form. Actinocin(9to1) = Cc1c2oc3c(C)ccc(C(=O)[*:1])c3nc-2c(C(=O)[*:2])c(N)c1=O; NMeV = CN[C@H](C(=O)O)C(C)C; Sar = CNCC(=O)O

Key:
Format in all cases: cell-based, mouse
DRGs = assay: anti-NGF antibody (NGF withdrawal) screen for inhibitors of axon degeneration in DRG explants; settings: inhibitor 100 μM or 10 μM added 1 hour before 25 μg/ml anti-NGF; 20 hours; actin stain
Description: The anti-NGF antibody model described above in Example 1 was used in a screen for inhibitors of neuron or axon degeneration. A library of more than 400 small molecules (Tocris Bioscience) was tested to see which, if any, modulate degeneration observed in the presence of anti-NGF antibodies.
Mouse E13.5 embryos were dissected and placed into L15 medium (Invitrogen). The spinal cord was dissected out from the embryos with DRGs attached. The spinal cords with DRGs attached were placed into L15 medium+5% goat serum (Gibco) on ice. The DRGs were removed using a tungsten needle and the remaining spinal cord was disposed of. Eight well slides were filled with N3-F12 solution (23 ml Ham's F12, 1 ml N3 supplement, and 1 ml 1 M glucose) to which was added 25 ng/ml NGF (Roche). (N3 supplement was made by dilution of N3 100× concentrate, which was made by mixing the following ingredients, in the following order: 5.0 ml Hank's buffered saline solution (HBSS; Ca, Mg free; Invitrogen), 1.0 ml bovine serum albumin (10 mg/ml in HBSS=150 μm), 2.0 ml Transferrin (T1147-1G, human, 100 mg/ml in HBSS=1.1 mM), 1.0 ml sodium selenite (S9133-1MG, 0.01 mg/ml in HBSS 58 μM), 0.4 ml putrescine dihydrochloride (P5780-5G, 80 mg/ml in HBSS=500 mM), 0.2 ml progesterone (P8783-5G, 0.125 mg/ml in absolute ethanol=400 μM), 0.02 ml corticosterone (C2505-500MG, 2 mg/ml in absolute ethanol=5.8 mM), 0.1 ml triiodothyonine, sodium salt (T6397-100MG, 0.2 mg/ml in 0.01 N NaOH=300 μM), 0.4 ml insulin (16634-250MG, bovine pancreas, 241 U/mg, 25 mg/ml in 20 mM HCl=4.4 mM), for a total volume of 10.02 ml (can be stored at −20° C.). An N3 supplement stock was made by combining the following: 10 ml Pen/Strep (100×, Gibco), 10 ml glutamine (200 mM, Gibco), 10 ml MEM vitamins (100×, Gibco), 10 ml N3 concentrate (100×, see above), for a total volume of 40 ml. The mixture was filter sterilized using a 0.22 μm filter, and 1-2 ml aliquots were stored at −20° C.).
The DRGs were sectioned into halves and placed in the center of each well of an 8-chamber slide (BD Biocoat PDL/Laminin coated glass, Becton Dickinson). The DRGs were permitted to attach to the slide at room temperature for 5-10 minutes, followed by an overnight incubation at 37° C. Inhibitors of choice were added at a concentration of 100 μM (top row) or 10 μM (bottom row) 1 hour before adding anti NGF antibodies. The anti-NGF antibodies were added to the right half of the slide (4 wells) at a concentration of 25 μg/ml. After incubation for 20 hours at 37° C., the slides were fixed with 30% sucrose/8% paraformaldehyde (PFA) by adding 250 μl of the fix solution directly to the 250 μl of culture medium. (To make the 30% sucrose/8% PFA solution, the following ingredients were added to a 600 ml beaker including a stir bar: 250 ml 16% PFA (cat#15710-S, Electron Microscopy Sciences), 50 ml 10×PBS pH 7.4, and 150 g sucrose. The solution was mixed under low heat until dissolved, and then 6-8 drops of 1 M NaOH were added to bring the pH to 7.4. The volume was then brought to 500 ml with water in a graduated cylinder. The solution was mixed well, placed in aliquots, and frozen.) The s ides were fixed for 30 minutes, followed by washing once with PBS. All cells were labeled with an actin stain (Alexa-568 conjugated phalloidin; 1:40; Invitrogen), a membrane dye (DiO; 1:200; Invitrogen), and a DNA stain (Hoechst 33258; 1:10,000; Invitrogen) in 0.1% Triton and 1% goat serum for 2 hours at room temperature. […]

[1] = system: DRG neurons (axon vs. cell body compartment); assay: Campenot chamber local axon degeneration (anti-NGF in axon compartment)
Description: Teflon dividers (Tyler Research) were cleaned by washing in water and wiping them clean of any residual grease. Dividers were then soaked in Nochromix (Godax Laboratories)/sulfuric acid overnight, rinsed five times in distilled and autoclaved water (SQ water), boiled for 30 minutes, and then air-dried before use
Mouse laminin (5 μg/ml in sterile filtered water; Invitrogen) was added to PDL coated 35 mm dishes (BD Biosciences) and they were incubated for 1 hour at 37° C., followed by two rinses in SQ water. The dishes were vacuum-dried and then air-dried in a laminar flow hood for 15 minutes. Prepared dishes were then scored with a pin rake (Tyler Research). […] High vacuum grease (VWR) was added to each Teflon divider under a dissection scope. The laminin coated PDL dishes were inverted and dropped onto the Teflon divider, with additional pressure added by use of a toothpick in the non-track-containing regions. Dishes were incubated for 1 hour at 37° C. Five hundred microliters of NBM+MC (50 ng/ml NGF) solution was added to each of the side compartments, and a grease barrier was added in front of the center cell slot.
Free E13.5 spinal cords were dissected from mouse embryos and placed into NBM+MC (25 ng/ml NGF) solution. DRGs were detached from the spinal cord with a tungsten needle. An NBM+MC-lubricated P200 pipette was used to move DRGs into a 1.5 ml tube. DRGs were pelleted with a tabletop centrifuge for 30 seconds. The supernate was discarded and 0.05% Trypsin/EDTA (cold) was added. The pellet was resolubilized with a pipette and incubated at 37° C. for 15 minutes with constant agitation (650 RPM). The sample was again centrifuged and the supernate discarded. The pellet was resuspended in warm NBM+MC (50 ng/ml NGF) solution and triturated with a flamed glass pipette 20 times, followed by trituration with a fire-bored glass pipette another 20 times. The samples were again centrifuged and the resulting pellets were resuspended in 0.5 ml NBM+MC (50 ng/ml NGF) solution. The cells were diluted to a final concentration of 2.5×10^6 cells/ml. The cell suspensions were loaded into a 1 ml syringe with a 22 gauge needle. The center slot of the Campenot divider was filled using the syringe (to a volume of at least 50 μl). The Campenot chamber was incubated overnight at 37° C. 2.5 ml NGF+MC (50 ng/ml NGF) solution was added to the center compartment and the grease gate was removed. The outer medium (cell body compartment) was replaced after three days with 2.5 ml NBM+MC medium (with 25 ng/ml NGF). After five days in culture, one distal compartment was washed three times with warmed NBM+MC (no NGF) solution. After the third wash, 500 μl NBM+MC (no NGF) solution was added to the axon compartment in combination with either 0.5% DMSO or an inhibitor. The cell body compartment was replaced with 2.5 ml NBM+MC medium (with 25 ng/ml NGF) containing either 0.5% DMSO or inhibitor.
After 28 hours of anti-NGF antibody treatment, 8% PFA/30% sucrose solution (see above) was added directly to the culture medium at a 1:1 dilution and incubated for 30 minutes. The Teflon divider was removed after the first 15 minutes of addition. The system was washed once with 2.5 ml PBS prior to immunostaining. Neurons were blocked in 5% BSA/0.2% triton in PBS for 30 minutes. The primary antibody Tuj1 (Covance) was added to a final dilution of 1:1000 in PBS containing 2% BSA and incubated overnight at 4° C. The dish was washed once with PBS. […] The dish was washed twice with PBS, and a 22×22 mm coverslip (VWR) was added with 350 μl of fluoromount G (Electron Microscopy Sciences). The neurons were visualized by use of a fluorescence microscope.
As described above, E13.5 DRGs were isolated and grown for 5 days in a Campenot chamber.

[2] = system: cerebellar granule neurons (CGNs); assay: serum deprivation/KCl reduction degeneration of cerebellar granule neurons; settings: 5 μM; 5 mM KCl, 24 hours
DRG explants = assay: pan-JNK inhibitors in NGF withdrawal assay on DRG explants; settings: for concentration at which most protective: DRG explants, NGF withdrawal; for protection of DRG explants from NGF-dependent degeneration: treated with anti-NGF and inhibitor
Description: If DLK inhibition protects neurons from degeneration through limiting the phosphorylation of JNK2 and JNK3, then inhibitors of JNK2 or JNK3 should also protect neurons from cell death and axon degeneration. The ability of direct JNK inhibition to protect neurons against NGF withdrawal-dependent degeneration was also assessed. DRG explants were treated with anti-NGF and either pan-JNK inhibitor JNKV or JNKVIII, prior to assessment in the NGF withdrawal assay described above.

[3] = inhibitor 5 μM in axon compartment
[4] = inhibitor 5 μM in cell body compartment

For C=C[C@@]1(C)CC(=O)[C@]2(O)[C@@]3(C)[C@@H](O)CCC(C)(C)[C@@H]3[C@H](OC(=O)CCN(C)C)[C@H](OC(C)=O)[C@@]2(C)O1 [NKH 477], the “Comments (observations on compounds found to protect against neurodegeneration)” value (“Comments” for short) (DRGs) was “Partial”.
O=C1c2ccccc2-c2n[nH]c3cccc1c23 [SP600125] was tested, and the “Axon Compartment (protection of NGF-deprived axons)” value (shortened to “Axon Compartment”) [1, 3] was “Yes (1)”, the “Cell Body Compartment (protection of NGF-deprived axons)” value (“Cell Body Compartment” below) [1, 4] was “Yes (1)” and the “Axon Compartment” value ([1]; inhibitor 10 μM in axon compartment) was “Yes (1)”. The “Cell Body Compartment” value ([1]; inhibitor 10 μM in cell body compartment) was “Yes (1)” and the “protection of cerebellar granule neurons from serum deprivation/KCl reduction” value [2] was “protect”.
For C[C@@H](NC(=O)/C(C#N)=C/c1ccc(O)c(O)c1)c1ccccc1 [Tyrphostin B44], the “Comments” value (DRGs) was “Partial”.
COc1ccc(CNC(=O)Nc2ncc([N+](=O)[O-])s2)cc1 [AR-A014418] was tested, and the “Axon Compartment” value ([1]; inhibitor 20 μM in axon compartment) was “No (1)” and the “Cell Body Compartment” value ([1]; inhibitor 20 μM in cell body compartment) was “Yes (1)”.
In the case of CCN(c1ccccc1)c1cc(NC)[n+](C)c(C)n1 [ZD7288], the “Axon Compartment” value [1, 3] is reported as “No (3)” and the “Cell Body Compartment” value [1, 4] is reported as “Yes (3)”.
With CCOc1nc(NC(=O)Cc2cc(OC)ccc2OC)cc(N)c1C#N [JNKVIII] the “concentration at which most protective” value (DRG explants) was 4 µM and the “protection of DRG explants from NGF-dependent degeneration” value (DRG explants) was “able to protect”.
With O=C1NC(=O)C(c2cn(CCCO)c3ncccc23)=C1c1cnccn1 [GSK3 inhibitor XI] the “Axon Compartment” value ([1]; inhibitor 30 μM in axon compartment, anti-NGF on axons 28 hours, number in parentheses not explained) was “No (2)” and the “Cell Body Compartment” value ([1]; inhibitor 30 μM in cell body compartment, anti-NGF on axons 28 hours, number in parentheses not explained) was “Yes (2)”.
In the case of C[C@@H]1C[C@@H]([C@H](O)CC2CC(=O)NC(=O)C2)C(=O)[C@@H](C)C1 [Cycloheximide], the “Axon Compartment” value [1, 3] is reported as “No (2)” and the “Cell Body Compartment” value [1, 4] is reported as “Yes (2)”.
With C=C[C@@]1(C)CC(=O)[C@]2(O)[C@@]3(C)[C@@H](O)CCC(C)(C)[C@@H]3[C@H](O)[C@H](OC(C)=O)[C@@]2(C)O1 [Forskolin] the “Axon Compartment” value ([1]; inhibitor 3 μM in axon compartment) was “Yes (2)” and the “Cell Body Compartment” value ([1]; inhibitor 3 μM in cell body compartment) was “Yes (2)”.
With C[S+]([O-])c1ccc(-c2nc(-c3ccc(F)cc3)c(-c3ccncc3)[nH]2)cc1.Cl (stereo not shown) [SB 203580 HCl] the “Comments” value (DRGs) was “Partial”.
For Cc1c2oc3c(C)ccc(C(=O)N[C@@H]4C(=O)N[C@H](C(C)C)C(=O)N5CCC[C@H]5C(=O)N(C)CC(=O)N(C)[C@@H](C(C)C)C(=O)O[C@@H]4C)c3nc-2c(C(=O)N[C@@H]2C(=O)N[C@H](C(C)C)C(=O)N3CCC[C@H]3C(=O)N(C)CC(=O)N(C)[C@@H](C(C)C)C(=O)O[C@@H]2C)c(N)c1=O [Actinomycin D] (I: T[dV]P[Sar][NMeV] / II: T[dV]P[Sar][NMeV]; ester I:1-I:C, II:1-II:C; linker I:N-II:N via Actinocin(9to1)), the “formation of varicosities in locally NGF-deprived axons” value [1] was “large number of axons with varicosities, as well as fragmented axons”, the “Axon Compartment” value ([1]; inhibitor 15 μM in axon compartment) was “No (4)” and the “Axon Compartment” value ([1]; inhibitor 15 μM in axon compartment, listed as Act D) was “failed to prevent degeneration”. The “Cell Body Compartment” value ([1]; inhibitor 15 μM in cell body compartment) was “Yes (4)” and the “Cell Body Compartment” value ([1]; inhibitor 15 μM in cell body compartment, listed as Act D) was “did not degenerate; also recorded: protected from local degeneration”.
N#C/C(=C1/Nc2ccccc2S1)c1ccnc(NCCc2cccnc2)n1 [JNKV] was tested, and the “concentration at which most protective” value (DRG explants) was 5 µM and the “protection of DRG explants from NGF-dependent degeneration” value (DRG explants) was “able to protect”.
For OC(CN1CCNCC1)Cn1c2ccc(Br)cc2c2cc(Br)ccc21 (stereo not shown) [Bax Channel Blocker], the “Comments” value (DRGs) was “Cell bodies detach”.
